Reference: ChEMBL document CHEMBL3507680, “University of Dundee, Gates Library screen for HepG2 cell viability”

Assay: Human HepG2 cell viability assay in 384 well format
Format: toxicity, cell-based
Parameters: dose 125 nL, time 70.5 hour; cytotoxicity at 70.5 h: concentration not given beside the values
Conditions: HepG2 cells, read-out: Inhibition

SMILES | cytotoxicity at 70.5 h [%]
Cc1cc(N2CCC(N(C)Cc3cccnc3)C2=O)n(C)n1 (centres undefined) | 13.5
Cn1cc(C(=O)Nc2cccc(F)c2)ccc1=O | 0.823
O=C(NCCNc1ccc(C(F)(F)F)cn1)c1ccoc1 | -8.13
Cc1cc(C)cc(C2(C(=O)NCC(C)CN3CCCC3=O)CC2)c1 (centres undefined) | -8.76
Cc1ccc(C(=O)N2CCCCC2CNC(N)=O)s1 (centres undefined) | -6.25
Cc1cccc(OCC(=O)N(C)C2CCN(CC3CCOC3)CC2)c1 (centres undefined) | -9.11
CCc1cc(NC(=O)c2cccc(OCC(F)(F)F)n2)[nH]n1 | -2.9
COc1cccc(C(O)Cn2ncc3ncccc3c2=O)c1 (centres undefined) | -10.1
CN1CCN(S(C)(=O)=O)c2cc(F)ccc21 | -14.8
CC(C#N)CNS(=O)(=O)c1ccc(Br)c(F)c1 (centres undefined) | -8.29
Cn1cc(C(=O)Nc2cccc(Oc3ccncc3)c2)ccc1=O | -4.83
Cc1ccc(S(=O)(=O)NCC(C)C#N)cc1Br (centres undefined) | -4.59
CC(C)N1C(=O)CC(NC(=O)c2cc(Cl)sc2Cl)C1=O (centres undefined) | -8.84
Cc1cscc1C(=O)NC1CC(=O)N(C(C)C)C1=O (centres undefined) | -4.89
CN(C)c1ncncc1NC(=O)Cc1c[nH]c2ccc(F)cc12 | -2.95
COc1ncnc(N(C)C)c1NC(=O)Cc1cc(F)ccc1F | -5.92
CCc1nnc2ccc(NCC3(N4CCCCC4)CCOCC3)nn12 | -7.09
CC1C(=O)Nc2cccnc2N1S(=O)(=O)c1ccc(C#N)c(Cl)c1 (centres undefined) | -6.2
CCN(Cc1ccoc1)C(=O)c1ccc(C)c(S(N)(=O)=O)c1 | -10.2
Cc1cc(N)nc(SC2CCCN(Cc3ccccc3)C2=O)n1 (centres undefined) | -9.67

SMILES | cytotoxicity at 70.5 h [%]
NC(=O)C1CCN(C(=O)c2ccccc2OCc2ccccc2Cl)CC1 | 12.3
O=S(=O)(N1CCCCCC1)N1CCc2sccc2C1 | -5.4
O=S(=O)(N1CCCCCC1)N1CCN(Cc2ccc(F)cc2Br)CC1 | -4.85
Cc1cc(C(=O)NCCN2CCCc3ccccc32)[nH]n1 | 22.8
CN(C)c1nc(N)nc(CSCCC(=O)Nc2ccc(F)cc2)n1 | -7.07
Cc1ccc(S(=O)(=O)NCc2cnn(C)c2)c(F)c1 | -3.12
Cc1nn(CC(C)C)c(N(C)C)c1CNCCC(=O)NC(C)C | 23
Cn1cc(NC(=O)CCCc2cccs2)c(=O)n(C)c1=O | 5.9
Cc1ncc(Cl)c(C(=O)N2CC(=O)N(C)c3ccccc32)n1 | -9.43
CNS(=O)(=O)CC(=O)N(Cc1ccsc1)c1ccccc1 | -8.25
COCCOCC(=O)NC(C#N)c1cc(Cl)cc(Cl)c1 (centres undefined) | 19.4
Cn1ccnc1-c1noc(NCc2ccc3c(c2)OCCO3)n1 | 8.69
CN(C)c1nccc(N(C)Cc2nc3ccccc3n2C)n1 | 10.9
N#Cc1nccnc1N1CCC(Cc2ccccc2)C1 (centres undefined) | -3.44
Cc1nc(C2CCCN2Cc2cc(Cl)c3c(c2)OCCCO3)no1 (centres undefined) | -7.15
O=C(C1CCCN(Cc2cccc(F)c2)C1)N1CCc2sccc2C1 (centres undefined) | 0.518
N#Cc1nccnc1N1CCC(COCc2ccccc2)C1 (centres undefined) | -4.27
Cc1ccc(C2CN(Cc3cnc(-c4cccnc4)s3)CCO2)o1 (centres undefined) | 7.31
Cc1nc(CN(C)C(=O)NC(C)c2ccc3c(c2)OCCO3)cs1 (centres undefined) | 36.4
Cc1cc(F)ccc1N1CCCC(NC2CCOCC2)C1=O (centres undefined) | 31.7

SMILES | cytotoxicity at 70.5 h [%]
COC(=O)CN(C(=O)c1ccc(-n2ccnc2)cc1)C1CCCC1 | 27.9
CC(C)CC(NC(=O)c1ccn(C)c(=O)c1)c1ccccc1 (centres undefined) | 33.2
Cc1nc(CNC(=O)NC(C)c2ccc3c(c2)OCCO3)cs1 (centres undefined) | 53.9
Cc1nc(CNC(=O)NC(C)c2ccc3c(c2)OCCCO3)cs1 (centres undefined) | -0.884
CC(C)CC(NC(=O)c1ccn(C)c(=O)c1)c1cccs1 (centres undefined) | 33.9
Cn1ccc(C(=O)N2CCN(Cc3ccccc3F)CC2)cc1=O | -0.663
CC(C)CNC(=O)CNC(=O)Nc1cccc(Cl)c1-n1cccn1 | 1.42
N#CCCN(CC1CC1)Cn1cc(Cl)cn1 | 34.6
CN(C)C(=O)CCNC(=O)Nc1cccc(Cl)c1-n1cccn1 | 1.32
CC(C)CC(CC(C)C)NC(=O)c1ccn(C)c(=O)c1 | 1.9
O=C(NCCC1CCN(CC(F)(F)F)CC1)C1CCOC1 (centres undefined) | 3.01
O=C(Nc1cccn(Cc2ccc(F)cc2)c1=O)c1cnc[nH]1 | -3.1
CC(=O)NS(=O)(=O)c1ccc(F)cc1C(F)(F)F | 33.1
CS(=O)(=O)c1ccccc1NCc1ccc(Cn2ccnc2)cc1 | -0.289
COc1cccc(S(=O)(=O)Cc2noc(CC(C)C)n2)c1 | -4.78
CN(C)C(CNCc1nc(-c2ccsc2)no1)c1cccc(F)c1 (centres undefined) | -10.2
Cc1nn(CCO)c(C)c1CNC1CCOc2ccccc21 (centres undefined) | -2.7
CCCC(N)CNS(=O)(=O)Cc1cccc(C#N)c1 (centres undefined) | -3.64
NC(CC1CCCCC1)c1ccccc1 (centres undefined) | 5.79
